Data reported in patent US6455582B1, “Sulohydroxamic acids and sulohyroxamates and their use as MEK inhibitors” (Warner-Lambert Company, priority 1999, dated 2002).

Biological target: GST-MEK / GST-MAPK (p45MEK, p44MAP kinase) cascade
Assay: Cascade assay for inhibitors of the MAP kinase pathway (APK)
Type: biochemical
Description: Cascade assay for inhibitors of the MAP kinase pathway
Incorporation of ^32P into myelin basic protein (MBP) is assayed in the presence of a glutathione S-transferase fusion protein containing p44MAP kinase (GST-MAPK) and a glutathione S-transferase fusion protein containing p45MEK (GST-MEK). The assay solution contains 20 mM HEPES, pH 7.4, 10 mM MgCl2, 1 mM MnCl2, 1 mM EGTA, 50,μM [γ-^32P]ATP, 10 μg GST-MEK, 0.5 μg GST-MAPK and 40 μg MBP in a final volume of 100 μL. Reactions are stopped after 20 minutes by addition of trichloroacetic acid and filtered through a GF/C filter mat. ^32P retained on the filter mat is determined using a 120S Betaplate. Compounds are assessed at 10 μM for ability to inhibit incorporation of ^32P
To ascertain whether compounds are inhibiting GST-MEK or GST MAPK, two additional protocols are employed. In the first protocol, compounds are added to tubes containing GST-MEK, followed by addition of GST-MAPK, MBP and [γ-^32P]ATP. In the second protocol, compounds are added to tubes containing both GST-MEK and GST-MAPK, followed by MBP and [γ-^32P]ATP.
Compounds that show activity in both protocols are scored as MAPK inhibitors, while compounds showing activity in only the first protocol are scored as MEK inhibitors.

IC50: 965 nM
SMILES: O=S(=O)(NOCC1CC1)c1ccc(F)c(F)c1Nc1ccc(I)cc1Cl [PD 0297447, 2-(2-Chloro-4-iodo-phenylamino)-N-cyclopropylmethoxy-3,4-difluoro-benzenesulfonamide]
